{
  "source": "patent US20030082102A1",
  "about": "“Radioactive platinum complexes for cancer treatment” (priority 2001, published 2003)",
  "origin": "cited, not measured here",
  "key": {"[1]": {"tested_on": "tissue culture", "conditions": "non-radioactive drug with external radiation"}, "[2]": {"conditions": "tracer quantities"}, "[3]": {"tested_on": "mammalian cells", "conditions": "for radiopotentiation / potentiation of chemotherapy effectiveness: cell culture, Howell 1994"}},
  "note": "Like-named read-outs stand apart in the source and are kept apart here.",
  "data": [
    {"smiles": "N.N.O=C([O-])C1(C(=O)[O-])CCC1.[Pt+2]", "note": "[Carboplatin, 1,1-Cyclobutanedicarboxylate diamine platinum (II)]", "values": [
      {"measurement": "Radiation enhancer in vitro?", "setting": "[1]", "result": "Yes"}
    ]},
    {"smiles": "[NH2][Pt]([NH2])([Cl])[Cl]", "note": "[^195mPt-cisplatinum]", "values": [
      {"measurement": "tumor drug level (tumor uptake)", "setting": "[2]; intra-arterial infusion, patients with nonresectable hepatoma", "result": "34-55 % of given dose"},
      {"measurement": "tumor drug level (tumor uptake)", "setting": "[2]; intravenous route", "result": "< 5 % of given dose"},
      {"measurement": "radiotoxicity above and beyond chemical toxicity", "setting": "[3]; cell culture studies, Howell et al 1994", "result": "no radiotoxicity above and beyond its chemical toxicity"},
      {"measurement": "radiopotentiation / potentiation of chemotherapy effectiveness", "setting": "[3]", "result": "no potentiation of chemotherapy effectiveness"}
    ]},
    {"smiles": "CC(=O)[O][Pt]([NH2])([Cl])([Cl])([NH]C1CCCCC1)[O]C(C)=O", "note": "[JM216]", "values": [
      {"measurement": "Radiation enhancer in vitro?", "setting": "[1]", "result": "Yes"}
    ]},
    {"smiles": "CC(C)N.CC(C)N.[Cl-].[Cl-].[OH-].[OH-].[Pt]", "note": "[Iproplatin, Cis-dichloro,trans-dihydroxybis-isopropylamine platinum (IV)]", "values": [
      {"measurement": "Radiation enhancer in vitro?", "setting": "[1]", "result": "Yes"}
    ]},
    {"smiles": "N.N.[Cl][Pt+2][Cl]", "note": "[^195mPt-trans-cisplatinum]", "values": [
      {"measurement": "radiopotentiation / potentiation of chemotherapy effectiveness", "setting": "[3]", "result": "showed radiopotentiation"}
    ]}
  ]
}
